# Data taken from patent publication US11866416B2, “Streptococcus mutans glucosyl transferase inhibitors for dental caries therapy” (UAB Research Foundation, priority 2018, dated 2024).
# Tests used:
# S. sanguinis biofilm = assay: Mono-species biofilm of S. sanguinis; type: cell-based, Streptococcus sanguinis; settings: up to 200 μM
# Experimental: (§1) Growth of commensal and dual-species biofilms. Overnight broth cultures were transferred by 1:50 dilutions into fresh THB medium and were allowed to grow until mid-exponential phase (OD470 nm=0.6) before transfer to 96-well plates. For mono-species biofilms, 1:100 dilution of the individual cultures was added to the 96-well plate containing the desired concentration of compound or DMSO. After incubation for 16 h, the biofilms were gently washed with PBS in triplicate and the biofilms were quantified with crystal violet staining. For dual-species biofilms, 1:100 dilution of S. mutans was used and 1:10 dilution of the commensal species (S. sanguinius or S. gordonii) was used as inoculum to seed the 96-well plate containing the desired concentration of compound or DMSO. After incubation for 16 h, the biofilms were scratched off with a sterile spatula and suspended in 100 μL of PBS, the biofilm samples were vortexed. To determine the total number of viable bacterial cells (colony forming units, CFU), 100 μl from dispersed, 16 h biofilms were serially diluted in potassium phosphate buffer and plated in duplicate on BAP. The commensal species could be differentiated from S. mutans due to their characteristic green rings.
# [1] = tested on: Actinomyces naeslundii T14VJ1; assay: Growth of Actinomyces naeslundii; type: cell-based; settings: 200 μM; printed as slight inhibition (>20%)
# Experimental: (§2) Cell viability of S. mutans, S. gordonii, S. sanguinis, Aggregatibacter actinomycetemcomitans and Actinomyces. […] The number of colony-forming units (CFU) per milliliter of each sample treated with selected compounds at different concentrations was enumerated after incubation for 24 h at 37° C. and compared to the values obtained from the DMSO control group. Overnight broth cultures were transferred by 1:50 dilutions into fresh THB medium and were allowed to grow until mid-exponential phase (OD470 nm 0.6) before transfer to 96-well plates containing desired concentration of the compound. After 16 h incubation, bacterial growth was measured at OD470, and normalized to the DMSO control (100%).
# GtfC = GtfC (Streptococcus mutans serotype c (strain ATCC 700610 / UA159), UniProt P13470); assay: Zymographic assay on GtfC from S. mutans GtfBD mutants; type: biochemical; settings: 25 μM
# GtfC, sequence (P13470 35-1455 limits assumed): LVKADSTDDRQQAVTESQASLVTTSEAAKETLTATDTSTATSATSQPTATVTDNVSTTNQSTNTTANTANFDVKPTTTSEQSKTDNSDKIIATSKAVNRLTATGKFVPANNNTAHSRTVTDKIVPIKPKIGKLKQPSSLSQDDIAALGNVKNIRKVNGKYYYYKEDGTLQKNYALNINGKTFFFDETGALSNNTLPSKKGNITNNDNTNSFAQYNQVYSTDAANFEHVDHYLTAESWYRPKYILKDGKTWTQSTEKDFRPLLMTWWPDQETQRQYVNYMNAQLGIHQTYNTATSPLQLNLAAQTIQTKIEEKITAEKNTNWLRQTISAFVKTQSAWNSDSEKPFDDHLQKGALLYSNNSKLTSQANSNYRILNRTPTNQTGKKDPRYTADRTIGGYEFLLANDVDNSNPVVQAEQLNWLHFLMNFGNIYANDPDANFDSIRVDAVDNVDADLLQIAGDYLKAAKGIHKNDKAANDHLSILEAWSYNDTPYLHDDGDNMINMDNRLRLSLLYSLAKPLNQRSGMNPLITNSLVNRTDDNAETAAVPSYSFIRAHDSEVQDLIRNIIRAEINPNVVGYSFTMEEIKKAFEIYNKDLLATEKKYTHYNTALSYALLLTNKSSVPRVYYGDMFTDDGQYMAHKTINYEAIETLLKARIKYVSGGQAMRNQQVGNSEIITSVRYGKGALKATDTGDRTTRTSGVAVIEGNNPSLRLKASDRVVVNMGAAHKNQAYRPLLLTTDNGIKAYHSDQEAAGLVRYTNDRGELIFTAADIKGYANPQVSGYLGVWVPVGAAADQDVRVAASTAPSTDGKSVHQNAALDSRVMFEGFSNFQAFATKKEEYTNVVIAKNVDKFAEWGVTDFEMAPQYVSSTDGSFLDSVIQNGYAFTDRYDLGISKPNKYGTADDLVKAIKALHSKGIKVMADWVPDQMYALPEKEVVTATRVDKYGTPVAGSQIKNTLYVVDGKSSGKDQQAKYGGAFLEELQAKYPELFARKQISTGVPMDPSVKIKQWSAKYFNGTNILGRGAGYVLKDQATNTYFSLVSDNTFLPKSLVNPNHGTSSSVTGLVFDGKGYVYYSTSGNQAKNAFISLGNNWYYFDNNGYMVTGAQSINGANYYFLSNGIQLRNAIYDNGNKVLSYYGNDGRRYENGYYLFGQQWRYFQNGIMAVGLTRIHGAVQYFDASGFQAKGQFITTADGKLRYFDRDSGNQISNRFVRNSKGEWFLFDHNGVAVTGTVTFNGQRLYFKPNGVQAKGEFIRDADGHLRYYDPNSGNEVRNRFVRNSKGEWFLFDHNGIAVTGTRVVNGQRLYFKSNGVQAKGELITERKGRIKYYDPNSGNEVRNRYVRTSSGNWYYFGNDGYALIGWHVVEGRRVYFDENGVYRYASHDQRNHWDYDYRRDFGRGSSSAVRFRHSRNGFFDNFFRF
# Experimental: FIGS. 3A-3C show Gtf patterns of S. mutans UA159 and its mutant variants. Culture supernatants were prepared from S. mutans UA159 and gtf double mutants, and then subjected to SDS-PAGE analysis with equivalent amount of proteins in each lane. […] The intensity of the bands were quantified using ImageJ in comparison to DMSO.
# Supernatants containing Gtf proteins prepared from S. mutans bacterial cultures were subjected to SDS-PAGE analysis and zymographic assay. […] The same amount of the protein sample was used as controls and visualized by protein staining (FIG. 3A, top panels). The lead compounds were also tested against individual Gtfs using supernatant proteins harvested from cultures of various double mutants.
# Construction of S. mutans Gtfs mutants. GtfB, GtfC single mutant, and GtfBC double mutant in which gtf was replaced with a kanamycin resistance cassette, aphA3 (encoding an aminoglycoside phosphotransferase), were gifts from Dr. Robert Burne's Laboratory, University of Florida, Gainesville, Fla. The GtfD mutant was constructed by an overlapping PCR ligation strategy using an erythromycin resistance cassette isolated from the IFDC2 cassette (Xie, Z., Okinaga, T., Qi, F., Zhang, Z. & Merritt, J. Cloning-independent and counterselectable markerless mutagenesis system in Streptococcus mutans. Appl Environ Microbiol 77, 8025-8033 (2011)).
# [2] = tested on: Aggregatibacter actinomycetemcomitans VT1169; assay: Growth of Aggregatibacter actinomycetemcomitans; type: cell-based; settings: 200 μM
# Experimental: as §2
# S. gordonii biofilm = assay: Mono-species biofilm of S. gordonii; type: cell-based, Streptococcus gordonii; settings: treated with lead compound
# Experimental: as §1
# S. mutans colonization = assay: Sucrose-dependent Drosophila colonization model; type: in vivo; settings: 50 μM
# Experimental: Briefly, Gfp tagged S. mutans bacteria were infected into flies along with the treatment appropriate compound at 100 μM in a feeding-assay.
# Mid-log phase THB cultures of Gfp-tagged (green fluorescent protein) S. mutans UA159 were spun down and resuspended in a solution containing 5% sucrose and 50 μM of the compound. 100 μL of resuspended cells were spotted onto a sterile filter that was placed on the surface of 5 mL of solidified 5% sucrose agar in a plastic vial. The vials were allowed to dry at room temperature for 30 minutes prior to addition of flies. Male Canton S flies (1-3 days old) were treated with antibiotics for 2 days and starved for 3 hours prior to the addition to vials supplied with S. mutans (10 flies per vial). The colonization of flies by Gfp-tagged strains were analyzed by Nikon elipse 90i microscope, equipped with an Epi-fluorescence and NIS elements AR imaging system.
# The intensity of the fluorescence was measured in the guts of the flies fed with the Gfp tagged bacteria after 7 days of infection.
# Cultures of Gfp-tagged (green fluorescent protein) S. mutans UA159 grown to middle log phase were spun down and re-suspended in a solution containing 5% sucrose and 50 μM of each compound. 100 μL of re-suspended cells were aliquoted onto a sterile filter that was placed on the surface of 5 mL of solidified 5% sucrose agar in a plastic vial. Upon the drying of the vials at room temperature for 30 min, the flies were introduced to the vessels. Male Canton S flies (1-3 days old) were treated with antibiotics for 2 days and starved for 3 h before the addition to vials supplied with S. mutans (10-14 flies per vial). Nikon elipse 90i microscope, equipped with an Epi-fluorescence and NIS elements AR imaging system was used to analyze the colonization of flies by Gfp-tagged strains.
SMILES,S. sanguinis biofilm formation versus control (S. sanguinis biofilm),inhibition of Actinomyces naeslundii growth [1] [%],inhibition of GtfC activity (ImageJ band intensity) (GtfC) [%],inhibition of Aggregatibacter actinomycetemcomitans growth [2],S. gordonii biofilm formation (S. gordonii biofilm),fluorescence of Gfp tagged S. mutans in fly guts after 7 days (S. mutans colonization)
NC(=O)c1ccccc1NC(=O)c1cc2cc([N+](=O)[O-])ccc2s1 [#G43],No significant difference,> 20,80,no significant inhibition,slight increase,–
Oc1cc(O)cc(/C=C/c2ccc(O)c(O)c2)c1 [Piceatannol],–,–,–,–,–,significant decrease in fluorescence
